Here are results for 25 compounds from US9260459B2, “4,6-hexadecadiene-2,4-dicarboxylic acid derivative” (Kyowa Hakko Kirin Co., Ltd., priority 2012, dated 2016).

The first assay concerns human cervical cancer cell line HeLa. The experiment in a line: Cell growth inhibition test against human cervical cancer cells. The format is cell-based. The settings on record: compound concentration 20 μmol/L, 72 hours culture, read-out: inhibited the cell growth. As for the experimental part: As a cervical cancer cell line, a human cervical cancer cell line HeLa (DS Pharma Biomedical, Cat. No. EC93021013-F0) was used.
The cell line was cultured under conditions of 37° C. and 5% carbon dioxide.
The difference in absorbance in the well in which the cells were not treated with the compound was taken as 100%, and the difference in absorbance in the well in which the cells were not inoculated was taken as 0%, and the cell growth ratio (%) was calculated based on the difference in absorbance in the compound-treated group.
`CCC(C)CC(C)CC(C)CC(C)/C=C(C)/C=C(/CC(C)C(=O)OC1C(=O)OC(C(=O)O)C1C(=O)O)C(=O)O` (stereo not shown) [Compound 1, 4-{(4Z,6E)-4-Carboxy-2,6,8,10,12,14-hexamethylhexadec-4,6-dienoyloxy}-5-oxotetrahydrofuran-2,3-dicarboxylic Acid]: the inhibition at 20 µM is at least 90%. On the same count and under the same terms, then `CCC(C)CC(C)CC(C)CC(C)/C=C(C)/C=C(/CC(C)C(=O)OC1C(=O)OC(C(=O)OCOC(C)=O)C1C(=O)OCOC(C)=O)C(=O)OCOC(C)=O` (stereo not shown) [Compound 27, Di(acetoxymethyl) 4-{(4Z,6E)-4-(acetoxymethoxycarbonyl)-2,6,8,10,12,14-hexamethylhexadec-4,6-dienoyloxy}-5-oxotetrahydrofuran-2,3-dicarboxylate], with at least 90%.

Staying with this assay, now noted: compound concentration 200 μmol/L, 72 hours culture, read-out: inhibited the cell growth.
`CCC(C)CC(C)CC(C)CC(C)/C=C(C)/C=C(/CC(C)C(=O)OC1C(=O)OC(C(=O)OC)C1C(=O)OC)C(=O)OC` (stereo not shown) [Compound 5, Dimethyl 4-{(4Z,6E)-4-(methoxycarbonyl)-2,6,8,10,12,14-hexamethylhexadec-4,6-dienoyloxy}-5-oxotetrahydrofuran-2,3-dicarboxylate]: the inhibition at 200 µM was at least 90%. For `CCC(C)CC(C)CC(C)CC(C)/C=C(C)/C=C(/CC(C)C(=O)OC(C(=O)O)C(C(=O)OC)C(O)C(=O)OC)C(=O)OC` (stereo not shown) [Compound 6, 4-Hydroxy-5-methoxy-3-(methoxycarbonyl)-2-{(4Z,6E)-4-(methoxycarbonyl)-2,6,8,10,12,14-hexamethylhexadec-4,6-dienoyloxy}-5-oxopentanoic Acid], the inhibition at 200 µM was at least 90%. The same measure, in the same setting: then `CCC(C)CC(C)CC(C)CC(C)/C=C(C)/C=C(/CC(C)C(=O)OC(C(=O)OC)C(C(=O)OC)C(O)C(=O)OC)C(=O)OC` (stereo not shown) [Compound 7, Trimethyl 1-hydroxy-3-{(4Z,6E)-4(methoxycarbonyl)-2,6,8,10,12,14-hexamethylhexadec-4,6-dienoyloxy}-propane-1,2,3-tricarboxylate], with at least 90%.

Turning to `CCC(C)CC(C)CC(C)CC(C)/C=C(C)/C=C(/CC(C)C(=O)O)C(=O)OC(C)(C)C` (stereo not shown) [Compound 8, (4Z,6E)-4-(tert-Butoxycarbonyl)-2,6,8,10,12,14-hexamethylhexadec-4,6-dienoic Acid], the inhibition at 200 µM is at least 90%. On the same count and under the same terms, then `CCC(C)CC(C)CC(C)CC(C)/C=C(C)/C=C(/CC(C)C(=O)OCC(=O)O)C(=O)O` (stereo not shown) [Compound 9, (2Z,4E)-2-{3-(Carboxymethoxy)-2-methyl-3-oxopropyl}-4,6,8,10,12-pentamethyltetradec-2,4-dienoic Acid], with at least 90%; and `CCC(C)CC(C)CC(C)CC(C)/C=C(C)/C=C(/CC(C)C(=O)OC)C(=O)O` (stereo not shown) [Compound 10, (2Z,4E)-2-(3-Methoxy-2-methyl-3-oxopropyl)-4,6,8,10,12-pentamethyltetradec-2,4-dienoic Acid], with at least 90%. Still for that read-out and setting: with `CCC(C)CC(C)CC(C)CC(C)/C=C(C)/C=C(/CC(C)C(=O)OCCC(=O)O)C(=O)O` (stereo not shown) [Compound 11, (2Z,4E)-2-{3-(2-Carboxyethoxy)-2-methyl-3-oxopropyl}-4,6,8,10,12-pentamethyltetradec-2,4-dienoic Acid] the figure was at least 90%; with `CCC(C)CC(C)CC(C)CC(C)/C=C(C)/C=C(/CC(C)C(=O)CCCC(=O)O)C(=O)O` (stereo not shown) [Compound 12, (2Z,4E)-2-{3-(3-Carboxypropyl)-2-methyl-3-oxopropyl}-4,6,8,10,12-pentamethyltetradec-2,4-dienoic Acid], at least 90%.

In the case of `CCC(C)CC(C)CC(C)CC(C)/C=C(C)/C=C(/CC(C)C(=O)CCCO)C(=O)O` (stereo not shown) [Compound 13, (2Z,4E)-2-{3-(3-Hydroxypropyl)-2-methyl-3-oxopropyl}-4,6,8,10,12-pentamethyltetradec-2,4-dienoic Acid], the inhibition at 200 µM is at least 90%. Turning to `CCC(C)CC(C)CC(C)CC(C)/C=C(C)/C=C(/CC(C)C(=O)O[C@@H](CC(=O)O)C(=O)O)C(=O)O` (stereo partly drawn) [Compound 14, (2S)-2-{(4Z,6E)-4-Carboxy-2,6,8,10,12,14-hexamethylhexadec-4,6-dienoyloxy}succinic Acid], the inhibition at 200 µM was at least 90%.

For the compound `CCC(C)CC(C)CC(C)CC(C)/C=C(C)/C=C(/CC(C)C(=O)O[C@H]1CCOC1=O)C(=O)O` (stereo partly drawn) [Compound 15, (2Z,4E)-4,6,8,10,12-Pentamethyl-2-[2-methyl-3-oxo-3-{(S)-2-oxotetrahydrofuran-3-yloxy}propyl]tetradec-2,4-dienoic Acid], the inhibition at 200 µM was at least 90%. In the case of `CCC(C)CC(C)CC(C)CC(C)/C=C(C)/C=C(/CC(C)C(=O)OCC[C@H](O)C(=O)O)C(=O)O` (stereo partly drawn) [Compound 16, (2Z,4E)-2-[3-{(S)-3-Carboxy-3-hydroxypropoxy}-2-methyl-3-oxopropyl]-4,6,8,10,12-pentamethyltetradec-2,4-dienoic Acid], the inhibition at 200 µM was at least 90%. With `CCOP(=O)(OCC)O[C@H](C(=O)O)[C@H](OC(=O)C(C)C/C(=C/C(C)=C/C(C)CC(C)CC(C)CC(C)CC)C(=O)O)C(=O)O` (stereo partly drawn) [Compound 17, (2S,3S)-2-{(4Z,6E)-4-Carboxy-2,6,8,10,12,14-hexamethylhexadec-4,6-dienoyloxy}-3-(diethoxyphosphoryloxy)succinic Acid], the inhibition at 200 µM was at least 90%. Same read-out and setting: with `CCC(C)CC(C)CC(C)CC(C)/C=C(C)/C=C(/CC(C)C(=O)[C@@H](CC)C(=O)O)C(=O)O` (stereo partly drawn) [Compound 18, (2Z,4E)-2-[3-{(R)-1-Carboxypropyl}-2-methyl-3-oxopropyl]-4,6,8,10,12-pentamethyltetradec-2,4-dienoic Acid] the figure was at least 90%; with `CCC(C)CC(C)CC(C)CC(C)/C=C(C)/C=C(/CC(C)C(=O)C[C@@H](O)CO)C(=O)O` (stereo partly drawn) [Compound 19, (2Z,4E)-2-[3-{(R)-2,3-Dihydroxypropyl}-2-methyl-3-oxopropyl]-4,6,8,10,12-pentamethyltetradec-2,4-dienoic Acid], at least 90%.

Take `CCC(C)CC(C)CC(C)CC(C)/C=C(C)/C=C(/CC(C)C(=O)O[C@@H]1CCOC1=O)C(=O)O` (stereo partly drawn) [Compound 20, (2Z,4E)-4,6,8,10,12-Pentamethyl-2-[2-methyl-3-oxo-3-{(R)-2-oxotetrahydrofuran-3-yloxy}propyl]tetradec-2,4-dienoic Acid]: the inhibition at 200 µM is at least 90%. Still for that read-out and setting: then `CCC(C)CC(C)CC(C)CC(C)/C=C(C)/C=C(/CC(C)C(=O)[C@@H]1COC(=O)C1)C(=O)O` (stereo partly drawn) [Compound 21, (2Z,4E)-4,6,8,10,12-Pentamethyl-2-[2-methyl-3-oxo-3-{(S)-5-oxotetrahydrofuran-3-yl}propyl]tetradec-2,4-dienoic Acid], with at least 90%; and `CCC(C)CC(C)CC(C)CC(C)/C=C(C)/C=C(/CC(C)C(=O)OC(C(=O)O)C(=O)O)C(=O)O` (stereo not shown) [Compound 22, 2-{(4Z,6E)-4-Carboxy-2,6,8,10,12,14-hexamethylhexadec-4,6-dienoyloxy}malonic Acid], with at least 90%; and `CCC(C)CC(C)CC(C)CC(C)/C=C(C)/C=C(/CC(C)C(=O)OC(C(=O)O)C(C(=O)O)C(=O)O)C(=O)O` (stereo not shown) [Compound 23, 2-{(4Z,6E)-4-Carboxy-2,6,8,10,12,14-hexamethylhexadec-4,6-dienoyloxy}ethane-1,1,2-tricarboxylic Acid], with at least 90%. Still for that read-out and setting: with `CCC(C)CC(C)CC(C)CC(C)/C=C(C)/C=C(/CC(C)C(=O)OCC(CC(=O)O)C(=O)O)C(=O)O` (stereo not shown) [Compound 24, 2-[{(4Z,6E)-4-Carboxy-2,6,8,10,12,14-hexamethylhexadec-4,6-dienoyloxy}methyl]succinic Acid] the figure was at least 90%; with `CCC(C)CC(C)CC(C)CC(C)/C=C(C)/C=C(/CC(C)C(=O)OCOC(C)=O)C(=O)O` (stereo not shown) [Compound 28, (2Z,4E)-2-{3-(Acetoxymethoxy)-2-methyl-3-oxopropyl}-4,6,8,10,12-pentamethyltetradec-2,4-dienoic Acid], at least 90%. The same measure, in the same setting: then `CCC(C)CC(C)CC(C)CC(C)/C=C(C)/C=C(/CC(C)C(=O)OCOC(C)=O)C(=O)OCOC(C)=O` (stereo not shown) [Compound 29, Bis(acetoxymethyl) (Z)-2-methyl-4-{(E)-2,4,6,8,10-pentamethyldodec-2-enylidene}pentanedioate], with at least 90%. As to `CCC(C)CC(C)CC(C)CC(C)/C=C(C)/C=C(/CC(C)C(=O)OC(C(=O)O)C(C(=O)OCOC(C)=O)C(O)C(=O)OCOC(C)=O)C(=O)O` (stereo not shown) [Compound 30, (2Z,4E)-2-[3-{4-(Acetoxymethoxy)-2-{(acetoxymethoxy)carbonyl}-1-carboxy-3-hydroxy-4-oxobutoxy}-2-methyl-3-oxopropyl]-4,6,8,10,12-pentamethyltetradec-2,4-dienoic Acid], the inhibition at 200 µM was at least 90%.
